“Also recorded” adds a separate entry of the source. Counter-ions that a name gives are not always drawn.
Key:
[1] = test system: adrenergic receptors
[2] = test system: cerebellar granular cells; test: L-dopa toxicity in primary cultures of cerebellar granular cells, viability by 14C-aminoisobutyric acid uptake; format: cell-based, Sprague Dawley rats; conditions: for % of control* (viability, radioactivity): mean of triplicates +/- S.D.
Protocol: Primary cultures of cerebellar granular cells were prepared from 8-day-old Sprague Dawley rats (Charles River, Portage, Mich.) as described previously (1). […] Glial cell proliferation was prevented by adding cytosine-arabinofuranoside-monophosphate (Sigma, St. […] Experiments were started after cells were 8 days in vitro (8 DIV). Cells were washed with two ml of serum free growth medium. Concentrations of 100X stock solutions of PPX and the (+) enantiomer in serum free growth medium were made. These were delivered to cells by adding 20 ul to cells in growth medium per well. […] Cells were incubated under the above conditions for 24 hrs. […] Cells were solubilized, following a wash, with 0.5% Triton X-100. The solubilized cells were then counted for radioactivity on a scintillation counter. Data was expressed as the mean of triplicates ±S.D. for each point.

[3] = test system: serotonergic receptors
[4] = test system: dopaminergic receptors; test: Battery of binding assays, dopaminergic receptors
[5] = test system: rat model of cerebral infarction; conditions: administered before the event; cited from earlier work
[6] = test system: gerbil model of global cerebral ischemia; conditions: in vivo; cited from earlier work
[7] = test system: nigrostriatal dopamine neurons
Protocol: We examined histologically retrograde degeneration of the dopaminergic nigrostriatal (NS) tract over 28 days in gerbils subjected to a 10-minute period of forebrain ischemia via bilateral carotid occlusion.
The administration of pramipexole was via an initial dose of 1 mg/kg PO 60 minutes after ischemia and again at the end of day 1 followed by twice daily dosing for the next 26 days.

## CCCNC1CCc2nc(N)sc2C1.Cl.Cl (single isomer, unassigned; (+)) [(+) enantiomer, (+)-enantiomer of 2-amino-6-n-propylamino-4,5,6,7-tetrahydrobenzothiazole dihydrochloride]
[1]
  binding activity (in words): inactive
[2]; 10 uM compound, L-dopa treated cells
  viability measurements versus control cells (in words): equal to control cells not exposed to L-dopa
[2]; cerebellar granule cells in culture, dihydrochloride
  neuroprotection against L-dopa toxicity (in words): blocked L-dopa toxicity; also recorded: equally as potent and effective compared to pramipexole
[3]
  binding activity (in words): inactive
[4]
  binding activity (in words): less active

## N[C@@H](Cc1ccc(O)c(O)c1)C(=O)O [L-dopa, reference compound]
[2]; 100 uM L-dopa, 24 hrs
  Toxicity of L-dopa: 64.8%

## CCN(CC)C(=O)N[C@H]1C=C2c3cccc4[nH]cc(c34)C[C@H]2N(C)C1 [Lisuride]
[5]
  brain edema: reduced
  survival time: prolonged

## c1cnc(N2CCN(Cc3ccc4c(c3)OCO4)CC2)nc1 [Piribedil]
[6]
  functional and biochemical parameters: have an effect

## CCCN[C@H]1CCc2nc(N)sc2C1 [Pramipexole, (−)-enantiomer of 2-amino-6-n-propylamino-4,5,6,7-tetrahydrobenzothiazole-dihydrochloride]
[7]; Example 1, 1 mg/kg PO BID beginning at 1 hr after insult, p<0.01 vs vehicle-treated
  attenuation of 28-day post-ischemic loss of NS DA neurons: 36%
[7]; Example 2, twice daily dose of 0.3 mg/kg, threshold effect
  increase in nigrostriatal dopamine neurons compared to vehicle: 14%
[7]; Example 2, twice daily dose of 1 mg/kg PO, p<0.0001 vs vehicle-treated
  improvement in 28 day post-ischemic dopamine neuronal survival: 38%
[2]; 1 nM compound, 100 uM L-dopa, 24 hrs
  % of control* (viability, radioactivity): 30.0 +/− 6.5 % of control
[2]; 10 nM compound, 100 uM L-dopa, 24 hrs
  % of control* (viability, radioactivity): 39.2 +/− 9.4 % of control
[2]; 100 nM compound, 100 uM L-dopa, 24 hrs
  % of control* (viability, radioactivity): 64.8 +/− 4.7 % of control
[2]; 300 nM compound, 100 uM L-dopa, 24 hrs
  % of control* (viability, radioactivity): 76.2 +/− 7.3 % of control
[2]; 1000 nM compound, 100 uM L-dopa, 24 hrs
  % of control* (viability, radioactivity): 65.5 +/− 14.8 % of control
[2]; 3000 nM compound, 100 uM L-dopa, 24 hrs
  % of control* (viability, radioactivity): 84.9 +/− 0.6 % of control
[2]; 10000 nM compound, 100 uM L-dopa, 24 hrs
  % of control* (viability, radioactivity): 90.0 +/− 11.5 % of control
[2]; Rattus norvegicus, cerebellar granule cells in culture, L-dopa, read-out: EC50 for blocking L-dopa toxicity
  EC50: 300 to 1000 nM
